# Reference: patent publication US20250154169A1, “COMPOUNDS AND METHODS FOR MODULATING SPLICING” (REMIX THERAPEUTICS INC., priority 2021, published 2025)
# How the values were obtained:
# K562 cells = test: Cell Titer Glo 2.0 cell viability assay, K562; type: cell-based; settings: Homo sapiens, 72 hours incubation
# Description: Compounds described herein were screened for toxicity in K562 (human chronic myelogenous leukemia) and SH-SY5Y (human neuroblastoma) cells using a Cell Titer Glo 2.0 assay.
# • Promega CellTiter-Glo® 2.0 Cell Viability Assay (cat #G9241) • Corning 384-well TC-treated microplates (cat #3570)
# Cells were plated at 500 cells/well (K562 cells) in 45 μL of IMDM supplemented with 10% FBS in a 384-well opaque plate. Wells containing only medium were used as a blank control. Test compounds (e.g., compounds of Formula (I) or (II)) were first serially diluted in DMSO then diluted 1:100 with EIDM+10% FBS. The final concentration of DMSO was 0.1% in each well. The cells were incubated for 72 hours at 37° C. and 5% CO2 before assaying with Cell Titer Glo 2.0 reagent.
# HTT = test: Protein abundance, HiBit-assay system (Promega), HTT; type: cell-based; settings: Table 6; HiBiT-modified K562 cells, 24 hours
# Source text: In some embodiments, a compound of Formula (I) or (II) or a pharmaceutically acceptable salt thereof, e.g., as described herein, modulates the expression of a target protein (e.g., HTT or MYB) in a reference cell or sample. In an embodiment, a compound of Formula (I) or (II) or a pharmaceutically acceptable salt thereof, e.g., as described herein, increases the expression of a target protein (e.g., HTT or MYB) in a reference cell or sample. In an embodiment, a compound of Formula (I) or (II) or a pharmaceutically acceptable salt thereof, e.g., as described herein, decreases the expression of a target protein (e.g., HTT or MYB) in a reference cell or sample. The effect of an exemplary compound of Formula (I) or (II) on protein abundance may be measured using a standard assay for measuring protein abundance, such as the HiBit-assay system (Promega). In this assay, percent response for each respective cell line may be as calculated at each compound concentration as follows: % response=100*(S−PC)/(NC−PC). For the normalized response at each concentration, a four-parameter logistical regression may be fit to the data and the response may be interpolated at the 50% value to determine a concentration for protein abundance at 50% (IC50) an untreated control. In an embodiment, a compound of Formula (I) or (II) or a pharmaceutically acceptable salt thereof, e.g., as described herein, has a protein abundance response less than 100 nM. In an embodiment, a compound of Formula (I) or (II) or a pharmaceutically acceptable salt thereof, e.g., as described herein, has a protein abundance response between 100-1000 nM. In an embodiment, a compound of Formula (I) or (II) or a pharmaceutically acceptable salt thereof, e.g., as described herein, has a protein abundance response greater than 1000 nM. In an embodiment, a compound of Formula (I) or (II) or a pharmaceutically acceptable salt thereof, e.g., as described herein, has a protein abundance response greater than 10 uM. In an embodiment, a compound of Formula (I) or (II) or a pharmaceutically acceptable salt thereof, e.g., as described herein, modulates the protein abundance of a target protein by about 1%, 5%, 10%, 15%, 20%, 25%, 30%, 35%, 40%, 45%, 50%, 55%, 60%, 65%, 70%, 75%, 80%, 85%, 90%, 95%, 99% or more, e.g., compared with a reference compound.
# HTT mRNA = test: Splicing RT-qPCR assay, HTT canonical (CJ) and alternative (AJ) junction mRNA; type: cell-based, human; settings: Homo sapiens, A673 or K562 cells, 24 hours compound treatment; for IC50: 24 h, read-out: HTT CJ (IC50, decrease in canonical junction mRNA); for AC50: read-out: HTT AJ (AC50, increase in alternative junction mRNA)
# Procedure, shortened: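 A673 or K562 cells were treated 24 h at 37 °C with an 11-point 3-fold compound dilution series (top 10 uM, DMSO ≤0.25%). Lysates went to one-step RT-qPCR measuring canonical (CJ) and alternative-exon (AJ) junction transcripts, normalized to GAPDH, GUSB or PPIA.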
Compound,GI50 (K562 cells),IC50 (HTT),IC50 (HTT mRNA),AC50 (HTT mRNA)
"Cc1cn2cc(NC(=O)c3ccc(N4CC[C@@H](NC56CC(C5)C6)C4)c4cn(C)nc34)cc(F)c2n1 [Compound 568, 4-[(3R)-3-{bicyclo[1.1.1]pentan-1-ylamino}pyrrolidin-1-yl]-N-{8-fluoro-2-methylimidazo[1,2-a]pyridin-6-yl}-2-methylindazole-7-carboxamide]",100 to 1000 nM,1 to 10 µM,1 to 10 µM,1 to 10 µM
"CCn1cc2c(N3CCC(NC4CC4)C3)cc(F)c(C(=O)Nc3cc(F)c4nc(C)cn4c3)c2n1 (stereo not drawn) [Compound 569, 4-[3-(cyclopropylamino)pyrrolidin-1-yl]-2-ethyl-6-fluoro-N-{8-fluoro-2-methylimidazo[1,2-a]pyridin-6-yl}indazole-7-carboxamide]",100 to 1000 nM,1 to 10 µM,> 10 µM,1 to 10 µM
"Cc1cn2cc(NC(=O)c3c(F)cc(N4CC[C@@H](NC5CC5)C4)c4cn(C)nc34)cc(F)c2n1 [Compound 571, 4-[(3R)-3-(cyclopropylamino)pyrrolidin-1-yl]-6-fluoro-N-{8-fluoro-2-methylimidazo[1,2-a]pyridin-6-yl}-2-methylindazole-7-carboxamide]",100 to 1000 nM,0.1 to 1 µM,0.1 to 1 µM,0.1 to 1 µM
"Cc1cn2cc(NC(=O)c3ccc(N4CC[C@@H](NCc5cnc(Cl)nc5)C4)c4cn(C)nc34)cc(F)c2n1 [Compound 573, 4-[(3R)-3-{[(2-chloropyrimidin-5-yl)methyl]amino}pyrrolidin-1-yl]-N-{8-fluoro-2-methylimidazo[1,2-a]pyridin-6-yl}-2-methylindazole-7-carboxamide]",1000 to 10000 nM,> 10 µM,> 10 µM,> 10 µM
Cc1cn2cc(NC(=O)c3ccc(N4CCC(C)(NC(C)C)C4)c4cn(C)nc34)cc(F)c2n1 (stereo not drawn) [Compound 574],100 to 1000 nM,> 10 µM,> 10 µM,> 10 µM
CCn1cc2c(N3CCNCC3)ccc(C(=O)Nc3cc(F)c4ncccc4c3)c2n1 [Compound 575],100 to 1000 nM,1 to 10 µM,> 10 µM,> 10 µM
